Reference: patent US4708961A, “Acylindole derivatives and their use in pharmaceutical compositions” (priority 1983, dated 1987)

Experiments:
[1] = test system: collagen induced platelet-aggregation (Platelet Rich Plasma); test: Inhibition of platelet-aggregation (collagen induced, aggregometer, rat PRP); format: cell-based, Wistar-strain male rats; conditions: for Platelet Aggregation (%): control 58 ± 1; for IC50: same manner (collagen), male rats weighing 500-700 g
Description: (2) Inhibition of platelet-aggregation
Groups of 5 Wistar-strain male rats (weighing 250-300 g) were used for collection of blood from abdominal aorta in the presence of sodium citric acid under anesthesia with ether. The obtained material was centrifuged at 200×g for 8 minutes to give Platelet Rich Plasma (PRP) from the supernatant. Further centrifugation was carried out at 1500×g for 15 minutes to obtain Platelet Poor Plasma (PPP) from the supernatant.
Platelet-aggregation was measured by aggregometer. 5 μl of the solution of the examined compound was added to 450 μl of the above-mentioned PRP and incubated for 1 minute at 37° C., after that a coagulant was added thereto. Collagen was used as the coagulant (final concentration was 4 μg/ml). Test compound was dissolved in DMSO (dimethylsulfoxide).
In the same manner as indicated above using Wister strain male rats weighing 500-700 g, example of the results is shown in Table 2.

ddy-strain male mice = test: Acute toxicity test; format: in vivo; conditions: 4000 mg/kg, orally administered, groups of 5 ddy-strain male mice fasted for 18 hours
Description: 4000 mg/kg of the compound of the invention were orally administered to groups of 5 ddy-strain male mice which were fasted for 18 hours.

[2] = 300 μM, collagen 4 μg/ml, PRP of Wistar-strain male rats 250-300 g, 1 minute at 37° C.
[3] = Rattus norvegicus, Platelet, 1 min, 300 μM, collagen 4 μg/ml, PRP of Wistar-strain male rats 250-300 g, 1 minute at 37° C., read-out: Inhibition rate (%)

SMILES	Platelet Aggregation (%) [1, 2] [%]	inhibition at 300 µM [1, 3] [%]	IC50 ([1]; Rattus norvegicus, Platelet) [µM]	mortality (none of the mice were died) (ddy-strain male mice)	Platelet Aggregation (%) ([1]; 200 μM, collagen 4 μg/ml, PRP of Wistar-strain male rats 250-300 g, 1 minute at 37° C.)	inhibition at 200 µM ([1]; Rattus norvegicus, Platelet, 1 min, 200 μM, collagen 4 μg/ml, PRP of Wistar-strain male rats 250-300 g, 1 minute at 37° C., read-out: Inhibition rate (%)) [%]
CC(=O)Oc1ccccc1C(=O)O [Aspirin, reference compound]	23 ± 4	60				
COc1ccc2c(c1)c(CC(=O)O)c(C)n2C(=O)c1ccc(Cl)cc1 [Indomethacin, reference compound]			27			
COc1ccc(C(=O)c2c[nH]c3ccccc23)cc1 [compound 1, 3-(p-methoxybenzoyl)indole]	22 ± 5	62	30	none of the mice were died		
COc1ccccc1C(=O)c1c[nH]c2ccccc12 [compound 2, 3-(o-methoxybenzoyl)indole]	7 ± 4		29	none of the mice were died		
O=C(c1ccc(O)cc1)c1c[nH]c2ccccc12 [compound 3, 3-(p-hydroxybenzoyl)indole]	7 ± 3		27	none of the mice were died		
O=C(c1ccccc1O)c1c[nH]c2ccccc12 [compound 4, 3-(o-hydroxybenzoyl)indole]	8 ± 5		23	none of the mice were died		
COc1ccc(C(=O)c2cn(C(C)=O)c3ccccc23)cc1 [compound 5, 3-(p-methoxybenzoyl)-N-acetylindole]			29	none of the mice were died	33 ± 1	43
COc1ccccc1C(=O)c1cn(C(C)=O)c2ccccc12 [compound 6, 3-(o-methoxybenzoyl)-N-acetylindole]	9 ± 3	84	18	none of the mice were died		
CC(=O)Oc1ccc(C(=O)c2cn(C(C)=O)c3ccccc23)cc1 [compound 7, 3-(p-acetoxybenzoyl)-N-acetylindole]	7 ± 1	88	21	none of the mice were died		
COc1ccc(C(=O)c2cn(C)c3ccccc23)cc1 [compound 8, 3-(p-methoxybenzoyl)-N-methylindole]			23	none of the mice were died		
CC(C)Oc1ccc(C(=O)c2c[nH]c3ccccc23)cc1 [compound 9, 3-(p-isopropoxybenzoyl)indole]	8 ± 3			none of the mice were died		
O=C(c1ccc(OCC(O)CO)cc1)c1c[nH]c2ccccc12 (stereo not drawn) [compound 16, 3-[p-(2,3-dihydroxypropoxy)benzoyl]indole]			61			
O=C(c1ccc(O)cc1)c1cn(CC(O)CO)c2ccccc12 (stereo not drawn) [compound 17, 3-(p-hydroxybenzoyl)-N-(2,3-dihydroxypropyl)indole]			85			
O=C(c1ccc(OCC(O)CO)cc1)c1cn(CC(O)CO)c2ccccc12 (stereo not drawn) [compound 18, 3-[p-(2,3-dihydroxypropoxy)benzoyl]-N-(2,3-dihydroxypropyl)indole]			94			
O=C(c1ccccc1O)c1cn(CC(O)CO)c2ccccc12 (stereo not drawn) [compound 19, 3-(o-hydroxybenzoyl)-N-(2,3-dihydroxypropyl)indole]			81			
O=C(c1ccccc1OCC(O)CO)c1cn(CC(O)CO)c2ccccc12 (stereo not drawn) [compound 20]			108			
O=C(c1ccc(OCCCO)cc1)c1c[nH]c2ccccc12 [compound 23, 3-[p-(3-hydroxypropoxy)benzoyl]indole]			52			
O=C(c1ccc(OCCCO)cc1)c1cn(CCCO)c2ccccc12 [compound 24, 3-[p-(3-hydroxypropoxy)benzoyl]-N-(3-hydroxypropyl)indole]			77			
